1 compound from patent US8048458B2, “Saponin and preservative compositions for reduction of protozoa” (Sartec Corporation, priority 2006, dated 2011) can be followed below.

In the series the test system is protozoa. In words: In vitro treatment of washed rumen protozoa: cell count and Live/Dead stain, % killed. Type of series: cell-based, rumen protozoa from a Holstein-Friesian cow. The settings on record: Yucca 1000 ppm where + Y, 2 hours, 39° C.; for % Viable: Live/Dead BacLight Stain; for % Killed by Treatment: standardized to blank. How it is done:
Rumen contents were obtained from a rumen cannulated Holstein-Friesian cow 10 hours post-prandial. […] Sedimented protozoa were aspirated to fresh CBD and washed twice with warm CBD. Protozoa were resuspended in warm CBD.
Crude yucca was diluted in water to the desired concentration. […] Ethoxyquin was diluted in absolute ethanol to obtain concentrations which correspond to field concentrations of 0.5 g, 1.0 g and 1.5 g.
Experimental treatments were as follows:
Individual treatment tubes were flushed with carbon dioxide prior to sealing and placement at 39° C. for 2 hours with occasional mixing by tube inversion.
Total number of protozoa present in each treatment was determined on the formalin fixed preparation and on the corresponding sample the percentage of live protozoa as indicated by the Live/Dead® BacLight Stain was also determined.
[…] was determined by multiplying the percent of live protozoa by the total protozoa present in each treatment. […] The number of viable protozoa for each treatment was then subtracted from the number of viable protozoa present in the blank (control) treatment. The difference is the number killed by the corresponding treatment. The treatments were then standardized to the blank by calculating a percentage killed by treatment.

The mark [1] stands for this setting: EQ 51.6 ug in vitro (0.5 g/head in vivo).
Setting [2] is: EQ 103 ug in vitro (1 g/head in vivo).
The mark [3] stands for this setting: EQ 154 ug in vitro (1.5 g/head in vivo).

As for `CCOc1ccc2c(c1)C(C)=CC(C)(C)N2` [EQ, 1,2-dihydro-6-ethoxy-2,2,4-trimethylquinoline], under setting [1], the “# Live” value amounted to 7.13E+04, the “% Killed by Treatment using Ethanol control as Baseline” value (from here on “% Killed by Treatment … as Baseline”) stood at 23%, the Cell count stood at 8.80E+04 and the “% Viable” value is on record as 81%. The “% Killed by Treatment” value under setting [1] is given as 18%. Moreover, under setting [2], the “# Live” value turned out to be 7.35E+04, the “% Killed by Treatment … as Baseline” value worked out at 20%, the Cell count worked out at 9.30E+04 and the “% Viable” value stood at 79%. In addition, the “% Killed by Treatment” value under setting [2] is given as 16%. Further, under setting [3], the “# Live” value is 5.40E+04, the “% Killed by Treatment … as Baseline” value worked out at 41%, the Cell count came out at 9.00E+04 and the “% Viable” value was 60%. Also, the “% Killed by Treatment” value under setting [3] was determined as 38%.
